Laboratory results taken from paper PMC9022229, “Induction of Paraptosis by Cyclometalated Iridium Complex-Peptide Hybrids and CGP37157 via a Mitochondrial Ca^2+ Overload Triggered by Membrane Fusion between Mitochondria and the Endoplasmic Reticulum” (Biochemistry, 2022).
Residues, ends and D or L forms follow the SMILES beside them. *: point of attachment. X1 = O=C(COc1ccc(-c2ccccn2)cc1)NCCCCCCCCN*

Assays:
[1] = system: Jurkat cells; assay: TEM analysis of cytoplasmic vacuolization; assay type: cell-based
Method: The morphological changes in Jurkat cells induced by CGP37157 (Figure 3B) were similar to those induced by 4 (Figure 1B) and confirmed in detail by TEM (transmission electron microscopy). Jurkat cells were treated with CGP37157 (100 μM) for 12 h, prefixed with glutaraldehyde and postfixed with osmium tetroxide (OsO4), and included in Poly 812 resin. The resulting samples were sliced and then observed by TEM. […] Similar TEM images were reported with respect to paraptosis-inducing natural compounds by some research groups: (i) paraptosis in MDA-MB 435S cells,[17] HeLa cells,[18] and Jurkat cells (Figure 4d and in our previous publications)[56]−[58] induced by celastrol, (ii) paraptosis in HeLa cells induced by 8-p-hydroxybenzoyl tovarol,[23] and (iii) paraptosis in A2780 cells and SKOV-3 cells induced by morusin.[22] Therefore, we believe that Jurkat cells undergo vacuolization in the paraptotic processes induced by 4 and CGP37157, as well as celastrol.
In a 1.5 mL Eppendorf tube, Jurkat cells (3.0 × 10^6 cells) were incubated with 4 (5 μM for 3 h), CGP37157 (100 μM for 12 h), and celastrol (1 μM for 24 h) in 10% FBS/RPMI 1640 medium at 37 °C under 5% CO2. After centrifugation (2000 rpm, 3 min, 4 °C), the cells were washed twice with PBS, prefixed with glutaraldehyde (2.5%) at 4 °C for 40 min, and then washed twice with PBS. Osmium tetroxide (1%) was used for postfixation, and the solution was incubated at 4 °C for 30 min. The cells were washed with PBS, included in an agarose gel, and dehydrated by using 50–100% and anhydrous EtOH. The cells were embedded into Poly 812 resin (Nisshin EM Co. Ltd.) at 60 °C for 3 days. The resin was sliced with a glass knife (150 nm thickness) on an ultramicrotome (EM UC6, Leica), and the samples were stained with EM stainer (Nisshin EM Co. Ltd.) and observed on TEM instrument (H-7650, Hitachi) with electron irradiation at 100 kV.

[2] = system: A549 cells; assay: MTT assay of A549 cells; assay type: cell-based, human; details: 24 h, 10% FBS/DMEM, 37 °C, 5% CO2
Method: HeLa S3 and A549 cells (2.0 × 10^4 cells/well) were seeded on a 96-well plate (BD Falcon) in cell culture medium and incubated overnight at 37 °C under 5% CO2. Jurkat (2.0 × 10^4 cells/well), HeLa S3, and A549 cells were treated with 4 (0–25 μM) and CGP37157 (0–100 μM) for 1, 3, 6, 12, and 24 h at 37 °C under 5% CO2, after which a MTT solution in PBS (0.5%, 10 μL) was added to each well.
Figure S3. MTT assay of HeLa S3 cells (plain curves with filled circles) and A549 cells (dashed curves with filled squares) treated with CGP37157 (0–100 µM) in 10% FBS/MEM (HeLa S3 cells) and 10% FBS/DMEM (A549 cells) for 24 h at 37 °C under 5% CO 2.
Figure S4. MTT assay of Jurkat cells treated with inhibitors of programmed cell death; Z-VAD-fmk (an apoptosis inhibitor), necrostatin-1 (Nec-1: a necroptosis inhibitor), and 3-methyl adenine (3-MA, an autophagy inhibitor) in the presence of CGP37157 (100 µM, 12 h). Values are shown as the mean ± SD for three independent experiments. ** P < 0.01.
(also on this page, place not known: Cell viability (% control) CO2. 50 Cell viability (% control) 0300 00030 of)

[3] = system: dynamin-related protein 1 (DRP1); assay: Western blot analysis of DRP1 in Jurkat cells; assay type: cell-based
Method: In a 1.5 mL Eppendorf tube, Jurkat cells (1.0 × 10^6 cells) were incubated in the presence of 4 ([…]), CGP37157 (100 μM for 0–24 h or 0–100 μM for 12 h), and celastrol (0–10 μM for 24 h or 1 μM for 0–24 h) at 37 °C under 5% CO2. After the cells had been washed twice with PBS, the proteins were extracted by using RIPA buffer (Nacalai Tesque) and quantified using a Pierce BCA Protein Assay Kit (Thermo Scientific). Proteins (7.5 μg/well) for MFNs and DRP1 and proteins (5.0 μg/well) for GAPDH were used for sodium dodecyl sulfate–polyacrylamide gel electrophoresis (SDS–PAGE) (7.5% for MFNs and DRP1 and 10% for GAPDH) (Bio-Rad). After SDS–PAGE, the proteins were transferred to a polyvinylidene fluoride membrane (Merck Millipore) by using a semi dry blotter (Bio-Rad). The membrane was blocked with Blocking One solution (Nacalai Tesque) for 30 min at room temperature. After being blocked, the membrane was washed three times with 1× TBST and treated with primary antibodies overnight (at a dilution of 1/1000 for MFNs and DRP1 or 1/2000 for GAPDH) in a signal enhancer HIKARI-solution A (Nacalai Tesque). The membrane was washed three times with 1× TBST and treated with the anti-mouse or anti-rabbit IgG HRP-conjugated secondary antibody (at a dilution of 1/4000 for MFNs and DRP1 or 1/10000 for GAPDH) in 1× TBST for 60 min at room temperature. The protein signal was spotted with a Chemi-Lumi One Ultra solution (Nacalai Tesque) using the ChemiDoc MP system (Bio-Rad).

Structure (SMILES)	Morphological change by TEM ([1]; CGP37157 100 μM, 12 h)	EC50 [2] [µM]	Expression level of DRP1 (Figure 11B) ([3]; CGP37157 100 μM, 1–6 h)	DRP1 band intensity relative to absence of compound ([3]; Figure S8B, CGP37157 10 µM, 12 h)	DRP1 band intensity relative to absence of compound ([3]; Figure S8B, CGP37157 20 µM, 12 h)	DRP1 band intensity relative to absence of compound ([3]; Figure S8B, CGP37157 50 µM, 12 h)	DRP1 band intensity relative to absence of compound ([3]; Figure S8B, CGP37157 80 µM, 12 h)	DRP1 band intensity relative to absence of compound ([3]; Figure S8B, CGP37157 100 µM, 12 h)	Morphological change by TEM ([1]; 4 at 5 μM, 3 h)	Expression level of DRP1 (Figure 11A) ([3]; 4 at 5 μM, 30 min to 1 h)	DRP1 band intensity relative to absence of compound ([3]; Figure S8A, 4 at 1 µM, 1 h per legend)	DRP1 band intensity relative to absence of compound ([3]; Figure S8A, 4 at 2.5 µM, 1 h per legend)	DRP1 band intensity relative to absence of compound ([3]; Figure S8A, 4 at 5 µM, 1 h per legend)	DRP1 band intensity relative to absence of compound ([3]; Figure S8A, 4 at 10 µM, 1 h per legend)	DRP1 band intensity relative to absence of compound ([3]; Figure S8A, 4 at 20 µM, 1 h per legend)
O=C1CSC(c2ccccc2Cl)c2cc(Cl)ccc2N1 (stereo not drawn) [CGP37157]	cytoplasmic vacuolization	81	somewhat upregulated	1.6	1.7	1.3	1.4	0.89							
NCCCC[C@H](NC(=O)[C@H](CCCCN)NC(=O)[C@@H](N)CCCCN)C(=O)NCC(=O)NCC(=O)NCCCCCCCCNC(=O)COc1ccc(-c2ccccn2)cc1 [compound 4] (H-KKKGG-X1)									cytoplasmic vacuolization	somewhat upregulated	2.0	2.5	2.6	2.6	1.0
